Results as given in BigSolDB 2.1.

CCOc1ccc(OCC)cc1
solubility (mole fraction)
Conditions | 278.15 K | 283.15 K | 288.15 K | 293.15 K | 298.15 K | 303.15 K | 308.15 K | 313.15 K | 318.15 K
in 2-butanone | 0.077 | 0.0958 | 0.113 | 0.136 | 0.169 | 0.204 | 0.257 | 0.31 | 0.406
in acetone | 0.0531 | 0.0679 | 0.0839 | 0.0969 | 0.12 | 0.158 | 0.204 | 0.263 | 0.341
in acetonitrile | 0.0204 | 0.0265 | 0.0372 | 0.0498 | 0.0672 | 0.102 | 0.141 | 0.251 | 0.473
in dimethyl carbonate | 0.0243 | 0.0339 | 0.0537 | 0.072 | 0.0994 | 0.145 | 0.193 | 0.25 | 0.342
in ethanol | 0.00307 | 0.00646 | 0.00901 | 0.0119 | 0.0155 | 0.0189 | 0.0234 | 0.031 | 0.043
in ethyl acetate | 0.0775 | 0.0933 | 0.113 | 0.145 | 0.179 | 0.218 | 0.264 | 0.313 | 0.372
in ethyl lactate | 0.0196 | 0.0305 | 0.0458 | 0.0578 | 0.0738 | 0.0875 | 0.109 | 0.148 | 0.213
in isobutyl acetate | 0.0332 | 0.045 | 0.0655 | 0.0872 | 0.112 | 0.145 | 0.181 | 0.225 | 0.281
in methanol | 0.00207 | 0.00338 | 0.00473 | 0.00666 | 0.00924 | 0.0115 | 0.0158 | 0.0212 | 0.0309
in methyl acetate | 0.0544 | 0.0685 | 0.0905 | 0.112 | 0.145 | 0.193 | 0.24 | 0.29 | 0.347
in n-butyl acetate | 0.0821 | 0.11 | 0.142 | 0.172 | 0.213 | 0.254 | 0.293 | 0.347 | 0.432
in n-propyl acetate | 0.0586 | 0.0753 | 0.0981 | 0.133 | 0.165 | 0.202 | 0.255 | 0.313 | 0.383
